Measurements published in article PMC9798004 (Frontiers in Psychiatry, 2022).

Legend:
Test in all cases: PathHunter β-arrestin assay
Type in all cases: cell-based
P2RY6 = P2RY6 (Homo sapiens, UniProt Q15077); settings: screen, control agonist; CHO, 37C, 2HR
Protocol: (§1) Follow up experiments were prioritized based on the difference between S/N and CoV. Targets with a >5-fold difference between S/N and CoV were investigated for their potential contribution to the AMB-FUBINACA toxidrome with 10-point concentration-response curves generated in technical replicate (range 1.5–30 μM) using the EC80 of the relevant agonist, where applicable in antagonist mode. Simultaneous agonist and antagonist curves were run in parallel to ensure reliability of the assay (see Supplementary Table 2), with both RC50 and signal to background aligning with historical averages, and Z' >0.5. RC50 was estimated using a four-parameter fit (CBIS Data Analysis Suite, ChemInnovation, San Diego, CA) on normalized data.

P2RY2 = target: T1, P2RY2 (Homo sapiens, UniProt P41231); settings: screen, control agonist; U2OS, 37C, 2HR
T1 construct: purchased Eurofins DiscoverX (PathHunter gpcrMAX)

P2RY4 = target: T2, P2RY4 (Homo sapiens, UniProt P51582); settings: screen, control agonist; CHO, 37C, 2HR
T2 construct: purchased Eurofins DiscoverX (PathHunter gpcrMAX)

PTHR2 = target: T3, PTHR2 (Homo sapiens, UniProt P49190); settings: screen, control agonist; CHO, 37C, 2HR
T3 construct: purchased Eurofins DiscoverX (PathHunter gpcrMAX)

PTGER4 = PTGER4 (Homo sapiens, UniProt P35408); settings: control agonist
Protocol: as §1

PTGER2 = target: T4, PTGER2 (Homo sapiens, UniProt P43116); settings: screen, control agonist; CHO, 37C, 2HR
T4 construct: purchased Eurofins DiscoverX (PathHunter gpcrMAX)

NPY1R = target: T5, NPY1R (Homo sapiens, UniProt P25929); settings: screen, control agonist; CHO, RT, 2HR
T5 construct: purchased Eurofins DiscoverX (PathHunter gpcrMAX)
T5 sequence (P25929 1-384): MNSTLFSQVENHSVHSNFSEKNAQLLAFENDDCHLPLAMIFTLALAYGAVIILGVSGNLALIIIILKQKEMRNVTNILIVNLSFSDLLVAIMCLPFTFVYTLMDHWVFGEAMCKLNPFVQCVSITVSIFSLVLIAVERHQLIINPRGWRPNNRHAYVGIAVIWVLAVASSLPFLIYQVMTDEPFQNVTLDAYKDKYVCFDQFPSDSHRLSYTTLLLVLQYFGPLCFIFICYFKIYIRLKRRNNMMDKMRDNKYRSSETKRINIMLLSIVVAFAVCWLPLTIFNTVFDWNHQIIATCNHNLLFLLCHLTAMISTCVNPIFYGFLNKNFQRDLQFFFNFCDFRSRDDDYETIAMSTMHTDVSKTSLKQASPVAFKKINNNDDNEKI

PTGIR = target: T6, PTGIR (Homo sapiens, UniProt P43119); settings: screen, control agonist; CHO, 37C, 2HR
T6 construct: purchased Eurofins DiscoverX (PathHunter gpcrMAX)

OXER1 = target: T7, OXER1 (Homo sapiens, UniProt Q8TDS5); settings: screen, control agonist; CHO, RT, 2HR
T7 construct: purchased Eurofins DiscoverX (PathHunter gpcrMAX)

PRLHR = target: T8, PRLHR (Homo sapiens, UniProt P49683); settings: screen, control agonist; CHO, 37C, 2HR
T8 construct: purchased Eurofins DiscoverX (PathHunter gpcrMAX)
T8 sequence (P49683 1-370): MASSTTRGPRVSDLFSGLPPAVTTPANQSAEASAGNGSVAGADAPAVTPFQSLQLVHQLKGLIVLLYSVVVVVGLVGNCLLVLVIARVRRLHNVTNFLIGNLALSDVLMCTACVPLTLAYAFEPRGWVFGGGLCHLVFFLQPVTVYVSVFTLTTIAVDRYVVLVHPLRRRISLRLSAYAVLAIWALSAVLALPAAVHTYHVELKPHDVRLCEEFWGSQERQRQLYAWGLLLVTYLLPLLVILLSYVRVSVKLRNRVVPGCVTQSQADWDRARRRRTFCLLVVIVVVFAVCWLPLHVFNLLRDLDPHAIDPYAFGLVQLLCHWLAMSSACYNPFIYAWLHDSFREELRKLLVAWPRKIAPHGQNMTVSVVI

NPSR1b = target: T9, NPSR1b (Homo sapiens, UniProt Q6W5P4); settings: screen, control agonist; U2OS, 37C, 2HR
T9 construct: purchased Eurofins DiscoverX (PathHunter gpcrMAX)
T9 sequence (Q6W5P4 1-377 isoform Q6W5P4-4): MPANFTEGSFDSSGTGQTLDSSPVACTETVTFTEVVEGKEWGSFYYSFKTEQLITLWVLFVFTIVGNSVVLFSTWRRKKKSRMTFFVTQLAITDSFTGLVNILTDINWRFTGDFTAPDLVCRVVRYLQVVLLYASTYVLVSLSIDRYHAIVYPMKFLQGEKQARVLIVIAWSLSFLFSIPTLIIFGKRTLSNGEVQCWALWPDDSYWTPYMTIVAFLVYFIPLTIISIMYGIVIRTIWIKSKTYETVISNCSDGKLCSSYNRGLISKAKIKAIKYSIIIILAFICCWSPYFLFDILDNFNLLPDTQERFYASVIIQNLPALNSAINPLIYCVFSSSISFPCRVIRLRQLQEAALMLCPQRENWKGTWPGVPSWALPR

SSTR3 = target: T10, SSTR3 (Homo sapiens, UniProt P32745); settings: screen, control agonist; CHO, 37C, 2HR
T10 construct: purchased Eurofins DiscoverX (PathHunter gpcrMAX)
T10 sequence (P32745 whole entry): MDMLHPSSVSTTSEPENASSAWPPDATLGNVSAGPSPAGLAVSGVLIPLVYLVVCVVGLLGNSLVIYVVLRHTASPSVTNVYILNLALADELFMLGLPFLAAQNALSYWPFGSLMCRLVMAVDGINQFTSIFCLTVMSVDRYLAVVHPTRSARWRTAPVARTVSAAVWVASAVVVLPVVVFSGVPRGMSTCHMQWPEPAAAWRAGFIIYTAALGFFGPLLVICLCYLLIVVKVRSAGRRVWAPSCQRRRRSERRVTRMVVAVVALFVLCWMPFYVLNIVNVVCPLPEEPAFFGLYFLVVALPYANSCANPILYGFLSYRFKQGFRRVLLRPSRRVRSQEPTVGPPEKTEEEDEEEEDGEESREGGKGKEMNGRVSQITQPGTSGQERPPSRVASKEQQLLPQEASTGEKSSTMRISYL

Chain of PTGER4 (P35408 whole entry): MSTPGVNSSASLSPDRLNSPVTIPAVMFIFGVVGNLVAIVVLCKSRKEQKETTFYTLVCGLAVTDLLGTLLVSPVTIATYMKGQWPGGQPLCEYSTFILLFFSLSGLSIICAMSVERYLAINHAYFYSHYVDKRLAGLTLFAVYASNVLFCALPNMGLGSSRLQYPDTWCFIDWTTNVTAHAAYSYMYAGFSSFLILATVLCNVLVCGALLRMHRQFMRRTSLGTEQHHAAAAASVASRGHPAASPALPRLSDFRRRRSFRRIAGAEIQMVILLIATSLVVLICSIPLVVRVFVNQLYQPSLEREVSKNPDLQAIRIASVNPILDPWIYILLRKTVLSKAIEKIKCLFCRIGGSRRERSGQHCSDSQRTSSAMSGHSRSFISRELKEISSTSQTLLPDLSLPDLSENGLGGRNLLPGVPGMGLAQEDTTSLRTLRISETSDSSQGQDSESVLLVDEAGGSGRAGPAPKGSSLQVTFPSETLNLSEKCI
T1 sequence (P41231 whole entry): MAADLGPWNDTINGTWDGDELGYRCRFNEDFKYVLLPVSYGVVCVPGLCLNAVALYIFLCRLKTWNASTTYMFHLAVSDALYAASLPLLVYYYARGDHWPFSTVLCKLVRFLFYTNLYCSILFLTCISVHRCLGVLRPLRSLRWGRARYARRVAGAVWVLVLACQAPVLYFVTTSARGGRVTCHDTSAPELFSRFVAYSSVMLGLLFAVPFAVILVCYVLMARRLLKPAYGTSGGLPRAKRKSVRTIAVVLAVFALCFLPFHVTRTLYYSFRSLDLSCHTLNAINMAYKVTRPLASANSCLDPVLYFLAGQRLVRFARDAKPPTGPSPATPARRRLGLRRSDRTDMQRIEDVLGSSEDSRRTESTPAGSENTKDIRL
Chain of P2RY6 (Q15077 whole entry): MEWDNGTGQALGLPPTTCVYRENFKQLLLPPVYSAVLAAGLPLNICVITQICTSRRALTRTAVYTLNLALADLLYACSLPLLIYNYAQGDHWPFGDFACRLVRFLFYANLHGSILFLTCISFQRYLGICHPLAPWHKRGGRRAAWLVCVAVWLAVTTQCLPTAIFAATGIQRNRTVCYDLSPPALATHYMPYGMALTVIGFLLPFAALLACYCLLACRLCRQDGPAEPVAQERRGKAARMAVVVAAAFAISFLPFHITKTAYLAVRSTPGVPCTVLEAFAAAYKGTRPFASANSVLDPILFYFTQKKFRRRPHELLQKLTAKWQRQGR
T6 sequence (P43119 whole entry): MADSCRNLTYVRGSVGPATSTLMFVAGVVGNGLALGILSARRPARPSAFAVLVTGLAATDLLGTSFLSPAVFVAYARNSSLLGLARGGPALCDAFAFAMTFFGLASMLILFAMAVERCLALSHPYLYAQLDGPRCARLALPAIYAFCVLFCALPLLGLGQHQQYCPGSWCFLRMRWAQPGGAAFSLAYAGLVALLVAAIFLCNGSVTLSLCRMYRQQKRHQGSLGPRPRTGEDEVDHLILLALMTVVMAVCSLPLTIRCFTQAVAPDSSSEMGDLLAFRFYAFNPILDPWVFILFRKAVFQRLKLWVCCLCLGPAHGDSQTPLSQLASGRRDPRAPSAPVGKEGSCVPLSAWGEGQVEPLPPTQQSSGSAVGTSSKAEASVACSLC
T7 sequence (Q8TDS5 whole entry): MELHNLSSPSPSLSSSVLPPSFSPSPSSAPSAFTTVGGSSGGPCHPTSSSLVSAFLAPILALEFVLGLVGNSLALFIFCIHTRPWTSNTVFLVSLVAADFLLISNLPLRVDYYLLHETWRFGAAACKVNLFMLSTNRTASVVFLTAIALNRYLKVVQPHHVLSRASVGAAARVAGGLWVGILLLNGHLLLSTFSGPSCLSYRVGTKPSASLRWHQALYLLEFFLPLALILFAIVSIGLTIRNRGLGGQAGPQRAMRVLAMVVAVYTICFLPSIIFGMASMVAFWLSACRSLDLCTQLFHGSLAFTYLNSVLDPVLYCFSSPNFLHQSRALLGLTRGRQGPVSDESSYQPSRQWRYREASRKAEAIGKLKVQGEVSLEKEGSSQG
T4 sequence (P43116 whole entry): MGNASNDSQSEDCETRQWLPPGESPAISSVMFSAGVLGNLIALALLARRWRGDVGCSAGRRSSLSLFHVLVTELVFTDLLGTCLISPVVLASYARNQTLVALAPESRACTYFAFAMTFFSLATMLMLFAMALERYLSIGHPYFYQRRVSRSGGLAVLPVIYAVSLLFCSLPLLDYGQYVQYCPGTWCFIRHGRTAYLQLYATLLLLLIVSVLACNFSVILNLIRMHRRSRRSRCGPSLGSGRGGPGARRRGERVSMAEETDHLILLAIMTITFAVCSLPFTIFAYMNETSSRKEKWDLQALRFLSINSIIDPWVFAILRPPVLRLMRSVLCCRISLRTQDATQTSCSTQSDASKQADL
T2 sequence (P51582 whole entry): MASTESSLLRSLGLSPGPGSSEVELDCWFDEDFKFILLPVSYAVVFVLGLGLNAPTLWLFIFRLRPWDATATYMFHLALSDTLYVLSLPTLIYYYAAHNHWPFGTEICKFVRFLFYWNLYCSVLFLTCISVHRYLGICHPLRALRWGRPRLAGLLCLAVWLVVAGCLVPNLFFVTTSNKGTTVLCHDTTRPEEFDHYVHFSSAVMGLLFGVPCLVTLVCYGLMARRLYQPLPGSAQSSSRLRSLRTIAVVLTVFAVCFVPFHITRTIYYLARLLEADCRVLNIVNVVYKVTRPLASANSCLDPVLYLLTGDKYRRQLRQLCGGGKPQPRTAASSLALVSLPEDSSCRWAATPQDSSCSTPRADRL
T3 sequence (P49190 25-550): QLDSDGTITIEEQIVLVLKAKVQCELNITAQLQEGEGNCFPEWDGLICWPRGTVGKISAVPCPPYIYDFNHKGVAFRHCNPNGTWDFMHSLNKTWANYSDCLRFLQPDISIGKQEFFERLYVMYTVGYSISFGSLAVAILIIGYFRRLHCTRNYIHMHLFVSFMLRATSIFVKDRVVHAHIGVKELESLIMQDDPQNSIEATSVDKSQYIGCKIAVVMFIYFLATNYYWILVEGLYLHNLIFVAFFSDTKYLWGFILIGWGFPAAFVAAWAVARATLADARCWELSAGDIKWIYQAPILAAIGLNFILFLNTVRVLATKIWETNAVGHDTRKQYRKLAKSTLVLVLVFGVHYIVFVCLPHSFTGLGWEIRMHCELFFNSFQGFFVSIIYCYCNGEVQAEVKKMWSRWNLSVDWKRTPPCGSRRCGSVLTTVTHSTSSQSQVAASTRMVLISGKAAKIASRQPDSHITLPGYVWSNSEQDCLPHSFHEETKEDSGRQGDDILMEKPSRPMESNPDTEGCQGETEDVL

In the case of `O=c1ccn([C@@H]2O[C@H](COP(=O)(O)OP(=O)(O)OP(=O)(O)O)[C@@H](O)[C@H]2O)c(=O)[nH]1` [UTP], the EC80 (P2RY6) is reported as 225 nM, the EC80 (P2RY2) is reported as 2580 nM and the EC80 (P2RY4) is reported as 930 nM.
Molecule TIP-39 has an EC80 (PTHR2) of 4.8 nM.
For `CCCCC[C@H](O)/C=C/[C@H]1[C@H](O)CC(=O)[C@@H]1C/C=C\CCCC(=O)O` [Prostaglandin E2], the EC80 (PTGER4; follow-up concentration-response assays) was 4.75 nM, the EC80 (PTGER4; screen, HEK, 37C, 2HR) was 3.58 nM and the EC80 (PTGER2) was 3650 nM.
Peptide YY: control agonist showed an EC80 (NPY1R) of 4.18 nM.
Molecule `CC#CCC(C)[C@H](O)/C=C/[C@@H]1[C@H]2c3cccc(CCCC(=O)O)c3O[C@H]2C[C@H]1O` (mixture of isomers) [Beraprost] has an EC80 (PTGIR) of 1700 nM.
Molecule `CCCCC/C=C\C/C=C\C/C=C\C=C\C(=O)CCCC(=O)O` [5-OxoETE] has an EC80 (OXER1) of 2130 nM.
For PrRP-31, the EC80 (PRLHR) was 1.8 nM.
“Neuropeptide S (SFRNGVGTGMKKTSFQRAKS; Neuropeptide S; UniProt P0C0P6 70-89, looked up) [control agonist]” gave an EC80 (NPSR1b) of 45.7 nM.
Tyr-SST 14 gave an EC80 (SSTR3) of 54.2 nM.
